Experimental data published in patent US20220041613A1, “TYROSINE KINASE INHIBITOR COMPOSITIONS, METHODS OF MAKING AND METHODS OF USE” (Black Diamond Therapeutics, Inc., priority 2018, published 2022).
“Also recorded” adds a separate entry of the source. Where two headings read alike, the source gives them in different places. One block for each compound: values may come before it.

Experiments:
[1] = tested on: HER2-Δ16, HER2-C311R, HER2-S310F, HER4Δ16; test: Western blot under non-reducing conditions: monomeric and dimeric HER2 and HER4 levels; type: cell-based, Homo sapiens
BaF3-HER2-Δ16 cells = test: Proliferation of BaF3-HER2-Δ16 cells; conditions: sub-saturating concentrations
[2] = tested on: covalently-activated EGFR variants (EGFR-Viii, EGFR-Vii, EGFR-Vvi, EGFR-A289V); test: Western blot under non-reducing conditions: monomeric versus covalently dimerized and phosphorylated EGFR; type: cell-based, Homo sapiens
[3] = tested on: BaF3 cells expressing EGFR-Viii, EGFR-Vii or EGFR-A289V; test: Proliferation of BaF3 cells expressing covalently-activated EGFR; type: cell-based, murine
GBM = conditions: cited from earlier work; for clinical benefit in GBM: >30 clinical trials and >1500 patients
EGFR WT = target: T1, EGFR WT (Homo sapiens, UniProt P00533); test: Assay for cell proliferation (CellTiterGlo), Activity for Inhibiting EGFR; type: cell-based; conditions: potency code, 3 days drug
T1 construct: endogenous in cells; host or cells: A431 (+H292)

EGFR NPH = target: T2, EGFR NPH (Homo sapiens, UniProt P00533, INS773NPH); test: Assay for cell proliferation (BaF3 transformants, CellTiterGlo), Activity for Inhibiting EGFR; type: cell-based; conditions: potency code, 3 days drug
T2 construct: expressed in transfected cells; host or cells: BaF3 (murine pro-B), retroviral pMXs-IRES-Blasticidin, selected for IL-3 independence
T2 sequence (P00533 with tags, fused parts or gaps INS773NPH): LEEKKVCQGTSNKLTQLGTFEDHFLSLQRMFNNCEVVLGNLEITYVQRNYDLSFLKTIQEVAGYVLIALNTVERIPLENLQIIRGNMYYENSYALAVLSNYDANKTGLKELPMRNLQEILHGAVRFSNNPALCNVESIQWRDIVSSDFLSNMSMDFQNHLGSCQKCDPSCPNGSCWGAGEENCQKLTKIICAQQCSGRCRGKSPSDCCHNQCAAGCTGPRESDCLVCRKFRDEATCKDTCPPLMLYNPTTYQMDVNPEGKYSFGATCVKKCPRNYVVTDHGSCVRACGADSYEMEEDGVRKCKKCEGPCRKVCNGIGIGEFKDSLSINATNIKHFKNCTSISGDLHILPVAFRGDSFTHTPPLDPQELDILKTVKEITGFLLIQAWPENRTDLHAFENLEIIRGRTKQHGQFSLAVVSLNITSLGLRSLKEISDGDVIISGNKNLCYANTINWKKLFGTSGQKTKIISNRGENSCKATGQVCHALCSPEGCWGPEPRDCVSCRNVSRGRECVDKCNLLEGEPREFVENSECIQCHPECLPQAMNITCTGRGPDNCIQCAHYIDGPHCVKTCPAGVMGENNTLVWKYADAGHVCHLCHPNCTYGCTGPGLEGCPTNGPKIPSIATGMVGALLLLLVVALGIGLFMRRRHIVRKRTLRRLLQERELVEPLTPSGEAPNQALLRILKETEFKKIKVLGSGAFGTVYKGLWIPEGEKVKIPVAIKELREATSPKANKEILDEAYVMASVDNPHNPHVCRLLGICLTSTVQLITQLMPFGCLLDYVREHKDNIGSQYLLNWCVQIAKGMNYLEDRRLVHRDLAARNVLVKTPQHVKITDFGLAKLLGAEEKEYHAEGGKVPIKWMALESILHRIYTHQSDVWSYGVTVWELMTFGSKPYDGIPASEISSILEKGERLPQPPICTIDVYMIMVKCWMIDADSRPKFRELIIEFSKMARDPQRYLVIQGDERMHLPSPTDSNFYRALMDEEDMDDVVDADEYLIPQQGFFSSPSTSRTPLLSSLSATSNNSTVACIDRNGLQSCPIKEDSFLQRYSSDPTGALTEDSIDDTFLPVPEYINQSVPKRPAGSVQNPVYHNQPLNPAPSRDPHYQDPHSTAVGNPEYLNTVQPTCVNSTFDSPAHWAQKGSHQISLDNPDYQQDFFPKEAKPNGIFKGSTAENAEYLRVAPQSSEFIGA
Experimental: (§1) Retroviral Production: EGFR mutants were subcloned into pMXs-IRES-Blasticidin (RTV-016, Cell Biolabs, San Diego, Calif.). Retroviral expression vector retrovirus was produced by transient transfection of HEK 293T cells with the retroviral EGFR mutant expression vector pMXs-IRES-Blasticidin (RTV-016, Cell Biolabs), pCMV-Gag-Pol vector and pCMV-VSV-G-Envelope vector. HEK 293T/17 cells were plated in 100 mm collagen coated plate (354450, Corning Life Sciences, Tewksbury, Mass.) (4×10^5 per plate) and incubated overnight. The next day, retroviral plasmids (3 μg of EGFR mutant, 1.0 μg of pCMV-Gag-Pol and 0.5 μg pCMV-VSV-G) were mixed in 500 μl of Optimem (31985, Life Technologies). The mixture was incubated at room temperature for 5 min and then added to Optimem containing transfection reagent Lipofectamine (11668, Invitrogen) and incubated for 20 minutes. Mixture was then added dropwise to HEK 293T cells. The next day the medium was replaced with fresh culture medium and retrovirus was harvested @ 24 and 48 hrs. Generation of EGFR mutant stable cell lines: BaF3 cells (1.5E5 cells) were infected with 1 ml of viral supernatant supplemented with 8 μg/ml polybrene by centrifuging for 30 min at 1000 rpm. Cells were placed in a 37° C. incubator overnight. Cells were then spun for 5 minutes to pellet the cells. Supernatant was removed and cells re-infected a fresh 1 ml of viral supernatant supplemented with 8 μg/ml polybrene by centrifuging for 30 min at 1000 rpm. Cells were placed in 37° C. incubator overnight. […] After 48 hours cells were selected for retroviral infection in 10 μg/ml Blasticidin for one week. Blasticidin resistant populations were washed twice in phosphate buffered saline before plating in media lacking IL-3 to select for IL-3 independent growth.
as §1, with “fresh 1 m1 of viral” for “fresh 1 ml of viral”

EGFR SVD = target: T3, EGFR SVD (Homo sapiens, UniProt P00533, INS770SVD); test: as above; type: cell-based; conditions: potency code, 3 days drug
T3 construct: expressed in transfected cells; host or cells: BaF3 (murine pro-B), retroviral pMXs-IRES-Blasticidin, selected for IL-3 independence
T3 sequence (P00533 with tags, fused parts or gaps INS770SVD): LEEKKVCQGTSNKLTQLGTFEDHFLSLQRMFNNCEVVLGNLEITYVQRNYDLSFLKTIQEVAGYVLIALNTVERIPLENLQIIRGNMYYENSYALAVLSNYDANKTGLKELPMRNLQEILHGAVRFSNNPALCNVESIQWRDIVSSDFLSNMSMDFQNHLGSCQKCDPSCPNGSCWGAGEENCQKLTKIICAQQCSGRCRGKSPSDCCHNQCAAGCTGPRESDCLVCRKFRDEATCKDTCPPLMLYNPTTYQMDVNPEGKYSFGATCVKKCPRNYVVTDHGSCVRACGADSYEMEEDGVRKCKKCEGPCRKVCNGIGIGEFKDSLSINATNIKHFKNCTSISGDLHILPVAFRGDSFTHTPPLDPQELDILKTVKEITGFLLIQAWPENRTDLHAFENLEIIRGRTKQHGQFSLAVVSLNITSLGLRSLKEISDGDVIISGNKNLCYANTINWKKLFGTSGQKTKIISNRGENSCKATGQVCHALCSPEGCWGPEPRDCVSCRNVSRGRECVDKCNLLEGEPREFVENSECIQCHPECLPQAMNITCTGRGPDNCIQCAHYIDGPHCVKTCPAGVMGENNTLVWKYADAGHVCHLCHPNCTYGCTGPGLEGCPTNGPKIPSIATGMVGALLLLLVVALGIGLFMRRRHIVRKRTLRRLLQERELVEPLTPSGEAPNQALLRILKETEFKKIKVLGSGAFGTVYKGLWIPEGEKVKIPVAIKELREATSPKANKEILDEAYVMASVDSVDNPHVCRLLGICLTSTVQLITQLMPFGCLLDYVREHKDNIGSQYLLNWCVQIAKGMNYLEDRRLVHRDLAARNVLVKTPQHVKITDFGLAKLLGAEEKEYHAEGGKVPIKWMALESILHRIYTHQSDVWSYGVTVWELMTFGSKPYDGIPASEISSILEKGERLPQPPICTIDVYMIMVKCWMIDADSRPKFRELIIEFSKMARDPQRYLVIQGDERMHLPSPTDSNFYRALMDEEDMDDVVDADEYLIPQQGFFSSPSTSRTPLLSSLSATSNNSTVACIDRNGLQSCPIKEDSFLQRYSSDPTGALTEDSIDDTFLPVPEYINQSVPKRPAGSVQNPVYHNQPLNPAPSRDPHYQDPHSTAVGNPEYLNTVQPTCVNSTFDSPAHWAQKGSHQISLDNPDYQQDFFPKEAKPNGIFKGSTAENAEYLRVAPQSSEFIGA
Experimental: as §1
as §1, with “fresh 1 m1 of viral” for “fresh 1 ml of viral”

EGFR V3 (EGFR-Viii) = target: T4, EGFR V3 (EGFR-Viii) (Homo sapiens, UniProt P00533, DELINS30-297G); test: as above; type: cell-based; conditions: potency code, 3 days drug
T4 construct: expressed in transfected cells; host or cells: BaF3 (murine pro-B), retroviral pMXs-IRES-Blasticidin, selected for IL-3 independence
T4 sequence (P00533 with tags, fused parts or gaps DELINS30-297G): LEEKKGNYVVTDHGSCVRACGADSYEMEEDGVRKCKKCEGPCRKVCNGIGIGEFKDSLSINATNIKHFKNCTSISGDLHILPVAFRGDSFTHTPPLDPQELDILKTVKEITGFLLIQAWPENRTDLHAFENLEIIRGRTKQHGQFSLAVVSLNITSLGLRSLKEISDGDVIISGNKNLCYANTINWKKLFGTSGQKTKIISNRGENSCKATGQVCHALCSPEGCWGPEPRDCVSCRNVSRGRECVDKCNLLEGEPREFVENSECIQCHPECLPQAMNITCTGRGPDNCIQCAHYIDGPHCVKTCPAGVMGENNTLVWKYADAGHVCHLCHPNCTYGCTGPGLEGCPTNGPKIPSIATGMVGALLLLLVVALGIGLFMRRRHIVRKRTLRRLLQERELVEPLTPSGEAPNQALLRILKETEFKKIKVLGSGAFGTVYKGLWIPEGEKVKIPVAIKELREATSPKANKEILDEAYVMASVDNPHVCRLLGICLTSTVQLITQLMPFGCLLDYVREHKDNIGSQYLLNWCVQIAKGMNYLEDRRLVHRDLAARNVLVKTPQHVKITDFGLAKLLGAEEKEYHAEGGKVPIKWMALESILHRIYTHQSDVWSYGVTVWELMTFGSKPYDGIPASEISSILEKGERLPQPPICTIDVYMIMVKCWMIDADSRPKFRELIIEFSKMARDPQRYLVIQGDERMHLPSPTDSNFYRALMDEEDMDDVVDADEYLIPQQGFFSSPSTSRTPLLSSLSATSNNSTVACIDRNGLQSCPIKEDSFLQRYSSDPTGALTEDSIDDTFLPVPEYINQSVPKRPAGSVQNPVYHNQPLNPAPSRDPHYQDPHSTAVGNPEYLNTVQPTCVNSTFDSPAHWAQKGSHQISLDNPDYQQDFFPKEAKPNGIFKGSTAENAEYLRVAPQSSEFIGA
Experimental: as §1
as §1, with “fresh 1 m1 of viral” for “fresh 1 ml of viral”

HER2 WT = target: T5, HER2 WT (Homo sapiens, UniProt P04626); test: Assay for cell proliferation (CellTiterGlo), Activity for Inhibiting HER2; type: cell-based
T5 construct: endogenous in cells; host or cells: BT474
T5 sequence (P04626 23-1255): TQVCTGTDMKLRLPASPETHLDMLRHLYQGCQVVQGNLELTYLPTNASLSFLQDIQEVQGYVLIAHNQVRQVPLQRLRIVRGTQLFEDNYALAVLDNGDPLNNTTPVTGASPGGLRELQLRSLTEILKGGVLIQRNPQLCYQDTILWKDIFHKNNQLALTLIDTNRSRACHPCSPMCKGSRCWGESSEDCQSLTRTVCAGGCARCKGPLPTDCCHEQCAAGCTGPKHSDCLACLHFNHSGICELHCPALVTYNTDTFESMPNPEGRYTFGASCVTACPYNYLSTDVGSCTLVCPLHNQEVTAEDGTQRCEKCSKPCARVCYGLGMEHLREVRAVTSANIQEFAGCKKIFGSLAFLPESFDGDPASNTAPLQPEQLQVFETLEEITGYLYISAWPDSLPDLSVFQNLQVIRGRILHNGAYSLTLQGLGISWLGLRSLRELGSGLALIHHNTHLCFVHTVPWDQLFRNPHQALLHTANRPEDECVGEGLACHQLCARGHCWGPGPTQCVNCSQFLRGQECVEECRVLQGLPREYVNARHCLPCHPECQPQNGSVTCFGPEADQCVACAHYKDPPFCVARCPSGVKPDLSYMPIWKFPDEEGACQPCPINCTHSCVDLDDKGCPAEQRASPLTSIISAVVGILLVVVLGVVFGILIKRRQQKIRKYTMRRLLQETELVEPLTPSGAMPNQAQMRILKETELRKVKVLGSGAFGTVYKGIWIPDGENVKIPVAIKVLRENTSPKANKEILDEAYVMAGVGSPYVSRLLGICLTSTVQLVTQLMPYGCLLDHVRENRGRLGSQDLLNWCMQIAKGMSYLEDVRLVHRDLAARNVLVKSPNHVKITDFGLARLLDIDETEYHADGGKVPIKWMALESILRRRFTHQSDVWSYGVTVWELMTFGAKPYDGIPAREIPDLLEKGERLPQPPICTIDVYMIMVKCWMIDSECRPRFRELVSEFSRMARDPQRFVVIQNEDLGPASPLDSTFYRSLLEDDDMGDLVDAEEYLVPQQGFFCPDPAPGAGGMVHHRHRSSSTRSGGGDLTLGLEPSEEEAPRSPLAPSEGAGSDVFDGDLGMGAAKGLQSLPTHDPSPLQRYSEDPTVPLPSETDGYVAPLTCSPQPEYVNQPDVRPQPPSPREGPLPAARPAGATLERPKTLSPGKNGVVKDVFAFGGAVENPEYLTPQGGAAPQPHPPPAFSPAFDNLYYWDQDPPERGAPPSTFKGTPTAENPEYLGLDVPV

HER2 S310F = target: T6, HER2 S310F (Homo sapiens, UniProt P04626, S310F); test: Assay for cell proliferation (BaF3 transformants, CellTiterGlo), Activity for Inhibiting HER2; type: cell-based; conditions: potency code, 3 days drug
T6 construct: expressed in transfected cells; host or cells: BaF3 (murine pro-B) transformants

HER2 YVMA = target: T7, HER2 YVMA (Homo sapiens, UniProt P04626, INS775YVMA); test: as above; type: cell-based; conditions: potency code, 3 days drug
T7 construct: expressed in transfected cells; host or cells: BaF3 (murine pro-B) transformants

HER2 S310F BaF3 tumors = test: Treatment of mice bearing HER2 mutant tumors, pHER2 and pERK via AlphaLisa; type: in vivo, Athymic nude mice; conditions: 15 mg/kg oral, two day acute dosing; at peak plasma levels
Experimental: Following the second dose, tumors were collected at 2 hours, 5 hours, 12 hours and 24 hours, and analyzed for both pHER2 activity and pERK activity via AlphaLisa. Plasma was also collected at these time points and analayzed for the presence of Compound No. 3 to determine pharmacokinetic profile. The tumor tissue was cut and homogenized using the Precellys Soft Tissue Homogenizing kit (KT03961-1-00.3.2) containing T-PER tissue protein extraction reagent (Thermo Scientific #78510), supplemented with Protease Inhibitor (Sigma P8340), and Phosphatase Inhibitors II and III (Sigma P5726 and P0044). Tissue samples were homogenized in the Precellys machine by spinning two times for one minute each. Sample tubes were centrifuged for 5 min at 15,000 rpm at 4° C. The supernatant was transferred to a fresh microtube and spun again for 5 minutes at 15,000 rpm at 4° C. Supernatant was then transferred to a fresh microtube and placed on ice. The protein concentration of the supernatant was measured using the BCA reagent Kit (Thermo Scientific #23225). Tumor tissue-derived lysates were analyzed for either HER2 activity or EGFR activity by detection of pHER2 (Tyr1221/1222) or pERK (Thr202/Tyr204) phosphosites, respectively, via AlphaLisa. […]

[4] = sub-saturating concentrations, up to 72 hours
[5] = covalent dimers of covalently-activated EGFR variants, cells expressing EGFR-Vii and EGFR-A289V (FIG. 8)
[6] = phase 2 study, erlotinib in combination with radiation and temozolomide
[7] = 'about ... or less', read-out: IC50 value for inhibiting wild-type HER2
[8] = Table B (Example 2), potency code, 3 days drug, read-out: HER2 WT
[9] = Table B, potency code, 3 days drug, read-out: HER2 WT

SMILES: CNC(=O)CN1CCC(Oc2cc3c(Nc4cccc(Cl)c4F)ncnc3cc2OC)CC1 [sapitinib]
covalent dimers of HER2 and HER4 extracellular variants [1]: levels of covalent dimers increased; also recorded: induce the expression of covalent dimers; also recorded: induce the formation of covalent dimers; also recorded: dose dependent increase in covalently dimerized receptors
proliferation of BaF3-HER2-Δ16 cells (BaF3-HER2-Δ16 cells): paradoxically stimulate the proliferation

SMILES: CN(C)C/C=C/C(=O)Nc1cc2c(Nc3ccc(F)c(Cl)c3)ncnc2cc1C#CC1[C@H]2COC[C@@H]12 (some centres unmarked) [NT-113]
formation of covalent EGFR dimers ([2]; cells expressing covalently-activated EGFR variants, non-reducing conditions): induces dimerization
proliferation of cells expressing covalently-activated EGFR (paradoxical activation) [3, 4]: no evidence for increased cellular proliferation

SMILES: C=CC(=O)Nc1cccc(Sc2nc(Nc3ccc(N4CCN(C)CC4)cc3)ncc2Cl)c1 [WZ8040]
Induced dimers [2, 5]: Yes
proliferation of cells expressing covalently-activated EGFR (paradoxical activation) [3, 4]: biphasic effect on proliferation; also recorded: paradoxical stimulation of proliferation

SMILES: CCOc1cc2ncc(C#N)c(Nc3ccc(OCc4ccccn4)c(Cl)c3)c2cc1NC(=O)/C=C/CN(C)C [Neratinib, neratinib]
proliferation of cells expressing covalently-activated EGFR (paradoxical activation) [3]: devoid of paradoxical activation

SMILES: C#Cc1cccc(Nc2ncnc3cc(OCCOC)c(OCCOC)cc23)c1 [Erlotinib, erlotinib]
clinical benefit in GBM (GBM): failed to produce any benefit
median OS (mOS) (GBM; [6]): 8.6 months
median PFS (mPFS) (GBM; [6]): 2.8 months

SMILES: COc1cc2ncnc(Nc3ccc(F)c(Cl)c3)c2cc1OCCCN1CCOCC1 [Gefitinib, gefinitinib]
clinical benefit in GBM (GBM): failed to produce any benefit

IC50 (EGFR WT; Table A (Example 2)): 0.2 to 0.3 µM
IC50 (EGFR WT; Table A): 0.2 to 0.3 µM
IC50 (EGFR NPH; Table A (Example 2)): 0.01 to 0.02 µM
IC50 (EGFR NPH; Table A): 0.01 to 0.02 µM
IC50 (EGFR SVD; Table A (Example 2)): 0.01 to 0.02 µM
IC50 (EGFR SVD; Table A): 0.01 to 0.02 µM
IC50 (EGFR V3 (EGFR-Viii); Table A (Example 2)): 0.01 to 0.02 µM
IC50 (EGFR V3 (EGFR-Viii); Table A): 0.01 to 0.02 µM
IC50 (HER2 WT; [7]): ≤ 0.006 µM
IC50 (HER2 WT; [8]): < 0.005 µM
IC50 (HER2 WT; [9]): < 0.005 µM
IC50 (HER2 S310F; Table B (Example 2)): 0.005 to 0.01 µM
IC50 (HER2 S310F; Table B): 0.005 to 0.01 µM
IC50 (HER2 YVMA; Table B (Example 2)): 0.02 to 0.03 µM
IC50 (HER2 YVMA; Table B): 0.02 to 0.03 µM
SMILES: C=CC(=O)Nc1cc2c(Nc3ccc4c(cnn4Cc4cccc(F)c4)c3)ncnc2cc1OCCN1CCOCC1 [compound 3]
pERK1/2 (Thr202/Tyr204) in tumors (HER2 S310F BaF3 tumors): reduction
pHER2 (Tyr1221/1222) in tumors (HER2 S310F BaF3 tumors): reduction

IC50 (EGFR WT; Table A (Example 2)): 0.3 to 0.5 µM
IC50 (EGFR WT; Table A): 0.3 to 0.5 µM
IC50 (EGFR NPH; Table A (Example 2)): 0.03 to 0.05 µM
IC50 (EGFR NPH; Table A): 0.03 to 0.05 µM
IC50 (EGFR SVD; Table A (Example 2)): 0.03 to 0.05 µM
IC50 (EGFR SVD; Table A): 0.03 to 0.05 µM
IC50 (EGFR V3 (EGFR-Viii); Table A (Example 2)): 0.03 to 0.05 µM
IC50 (EGFR V3 (EGFR-Viii); Table A): 0.03 to 0.05 µM
IC50 (HER2 WT; [7]): ≤ 0.01 µM
IC50 (HER2 WT; [8]): 0.005 to 0.01 µM
IC50 (HER2 WT; [9]): 0.005 to 0.01 µM
IC50 (HER2 S310F; Table B (Example 2)): 0.01 to 0.02 µM
IC50 (HER2 S310F; Table B): 0.01 to 0.02 µM
IC50 (HER2 YVMA; Table B (Example 2)): 0.05 to 0.1 µM
IC50 (HER2 YVMA; Table B): 0.05 to 0.1 µM
SMILES: C=CC(=O)Nc1cc2c(Nc3ccc4c(cnn4Cc4cccc(F)c4)c3)ncnc2cc1C#CC(C)(C)N1CCN(C)CC1 [compound 9]

SMILES: C=CC(=O)Nc1cccc(Oc2nc(Nc3ccc(N4CCN(C)CC4)cc3)ncc2Cl)c1 [WZ3146]
Induced dimers [2, 5]: Yes
proliferation of cells expressing covalently-activated EGFR (paradoxical activation) [3, 4]: biphasic effect on proliferation; also recorded: paradoxical stimulation of proliferation

SMILES: C=CC(=O)Nc1cccc(Oc2nc(Nc3ccc(N4CCN(C)CC4)cc3OC)ncc2Cl)c1 [WZ4002]
Induced dimers [2]: Yes
proliferation of cells expressing covalently-activated EGFR (paradoxical activation) [3, 4]: biphasic effect on proliferation; also recorded: paradoxical stimulation of proliferation
